{"source": "patent USRE39591E1", "about": "“6-O-substituted ketolides having antibacterial activity” (Abbott Laboratories, priority 1996, dated 2007)", "tested_on": "up to 32 different microorganisms", "assay": "in vitro antibacterial activity (MIC), agar dilution on Brain Heart Infusion (BHI) agar with Steers replicator", "format": "cell-based", "conditions": "unit assumed", "how_it_was_run": "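Agar dilution MIC: twelve successive compound dilutions in BHI agar, spot-inoculated with 1:100 (1:10 for slow growers) organism dilutions by Steers replicator, incubated 35-37° C for 20-24 h. MIC is lowest concentration showing no growth, slight haze or sparse colonies versus drug-free control; erythromycin A as class reference.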", "data": [{"compound": "CCC1OC(=O)C(C)C(=O)C(C)C(OC2OC(C)CC(N(C)C)C2O)C(C)(OCC=Cc2cnc3ccc(NC(C)=O)cc3c2)CC(C)C(=O)C(C)C2NC(=O)OC12C", "note": "(stereo not shown) [Example 203]", "values": [{"measurement": "MIC", "setting": "organism code AA", "result": 0.2, "unit": "µg/mL"}, {"measurement": "MIC", "setting": "organism code BB", "result": 0.39, "unit": "µg/mL"}, {"measurement": "MIC", "setting": "organism code CC", "result": "> 100", "unit": "µg/mL"}, {"measurement": "MIC", "setting": "organism code DD", "result": 0.2, "unit": "µg/mL"}, {"measurement": "MIC", "setting": "organism code EE", "result": 0.2, "unit": "µg/mL"}, {"measurement": "MIC", "setting": "organism code FF", "result": 0.39, "unit": "µg/mL"}, {"measurement": "MIC", "setting": "organism code GG", "result": "> 100", "unit": "µg/mL"}, {"measurement": "MIC", "setting": "organism code HH", "result": 0.2, "unit": "µg/mL"}, {"measurement": "MIC", "setting": "organism code II", "result": 0.2, "unit": "µg/mL"}, {"measurement": "MIC", "setting": "organism code JJ", "result": "≤ 0.005", "unit": "µg/mL"}, {"measurement": "MIC", "setting": "organism code KK", "result": 0.01, "unit": "µg/mL"}, {"measurement": "MIC", "setting": "organism code LL", "result": 0.01, "unit": "µg/mL"}, {"measurement": "MIC", "setting": "organism code MM", "result": 1.56, "unit": "µg/mL"}, {"measurement": "MIC", "setting": "organism code NN", "result": 0.39, "unit": "µg/mL"}, {"measurement": "MIC", "setting": "organism code OO", "result": 0.02, "unit": "µg/mL"}, {"measurement": "MIC", "setting": "organism code PP", "result": 0.39, "unit": "µg/mL"}, {"measurement": "MIC", "setting": "organism code QQ", "result": 100, "unit": "µg/mL"}, {"measurement": "MIC", "setting": "organism code RR", "result": 0.39, "unit": "µg/mL"}, {"measurement": "MIC", "setting": "organism code SS", "result": 100, "unit": "µg/mL"}, {"measurement": "MIC", "setting": "organism code TT", "result": "> 100", "unit": "µg/mL"}, {"measurement": "MIC", "setting": "organism code UU", "result": 6.2, "unit": "µg/mL"}, {"measurement": "MIC", "setting": "organism code VV", "result": 0.39, "unit": "µg/mL"}, {"measurement": "MIC", "setting": "organism code WW", "result": 4, "unit": "µg/mL"}, {"measurement": "MIC", "setting": "organism code XX", "result": 0.03, "unit": "µg/mL"}, {"measurement": "MIC", "setting": "organism code YY", "result": 0.03, "unit": "µg/mL"}, {"measurement": "MIC", "setting": "organism code ZZ", "result": 16, "unit": "µg/mL"}, {"measurement": "MIC", "setting": "organism code ZZA", "result": 2, "unit": "µg/mL"}]}, {"compound": "CCC1OC(=O)C(C)C(=O)C(C)C(OC2OC(C)CC(N(C)C)C2O)C(C)(OCC=Cc2ccc3[nH]c4ccccc4c3c2)CC(C)C(=O)C(C)C2NC(=O)OC12C", "note": "(stereo not shown) [Example 204, R is —CH2CH═CH-(3-carbazolyl)]", "values": [{"measurement": "MIC", "setting": "organism code AA", "result": 0.1, "unit": "µg/mL"}, {"measurement": "MIC", "setting": "organism code BB", "result": 0.1, "unit": "µg/mL"}, {"measurement": "MIC", "setting": "organism code CC", "result": "> 100", "unit": "µg/mL"}, {"measurement": "MIC", "setting": "organism code DD", "result": 0.1, "unit": "µg/mL"}, {"measurement": "MIC", "setting": "organism code EE", "result": 0.1, "unit": "µg/mL"}, {"measurement": "MIC", "setting": "organism code FF", "result": 0.1, "unit": "µg/mL"}, {"measurement": "MIC", "setting": "organism code GG", "result": "> 100", "unit": "µg/mL"}, {"measurement": "MIC", "setting": "organism code HH", "result": 0.1, "unit": "µg/mL"}, {"measurement": "MIC", "setting": "organism code II", "result": 0.05, "unit": "µg/mL"}, {"measurement": "MIC", "setting": "organism code JJ", "result": 0.01, "unit": "µg/mL"}, {"measurement": "MIC", "setting": "organism code KK", "result": 0.01, "unit": "µg/mL"}, {"measurement": "MIC", "setting": "organism code LL", "result": 0.01, "unit": "µg/mL"}, {"measurement": "MIC", "setting": "organism code MM", "result": 3.1, "unit": "µg/mL"}, {"measurement": "MIC", "setting": "organism code NN", "result": 0.2, "unit": "µg/mL"}, {"measurement": "MIC", "setting": "organism code OO", "result": 0.02, "unit": "µg/mL"}, {"measurement": "MIC", "setting": "organism code PP", "result": 0.1, "unit": "µg/mL"}, {"measurement": "MIC", "setting": "organism code QQ", "result": "> 100", "unit": "µg/mL"}, {"measurement": "MIC", "setting": "organism code RR", "result": 0.78, "unit": "µg/mL"}, {"measurement": "MIC", "setting": "organism code SS", "result": "> 100", "unit": "µg/mL"}, {"measurement": "MIC", "setting": "organism code TT", "result": "> 100", "unit": "µg/mL"}, {"measurement": "MIC", "setting": "organism code UU", "result": 0.78, "unit": "µg/mL"}, {"measurement": "MIC", "setting": "organism code VV", "result": 0.1, "unit": "µg/mL"}, {"measurement": "MIC", "setting": "organism code WW", "result": 4, "unit": "µg/mL"}, {"measurement": "MIC", "setting": "organism code XX", "result": 0.06, "unit": "µg/mL"}, {"measurement": "MIC", "setting": "organism code YY", "result": 0.06, "unit": "µg/mL"}, {"measurement": "MIC", "setting": "organism code ZZ", "result": 8, "unit": "µg/mL"}, {"measurement": "MIC", "setting": "organism code ZZA", "result": 0.5, "unit": "µg/mL"}]}, {"compound": "CCC1OC(=O)C(C)C(=O)C(C)C(OC2OC(C)CC(N(C)C)C2O)C(C)(OCC=Cc2ccc3[nH]cnc3c2)CC(C)C(=O)C(C)C2NC(=O)OC12C", "note": "(stereo not shown) [Example 205, R is —CH2CH═CH-(5-benzimidazolyl)]", "values": [{"measurement": "MIC", "setting": "organism code XX", "result": 0.03, "unit": "µg/mL"}, {"measurement": "MIC", "setting": "organism code YY", "result": 0.06, "unit": "µg/mL"}, {"measurement": "MIC", "setting": "organism code ZZ", "result": "> 64", "unit": "µg/mL"}, {"measurement": "MIC", "setting": "organism code ZZA", "result": 4, "unit": "µg/mL"}]}, {"compound": "CCC1OC(=O)C(C)C(=O)C(C)C(OC2OC(C)CC(N(C)C)C2O)C(C)(OCC=Cc2ccc3cc(O)c(C(=O)Nc4ccccc4OC)cc3c2)CC(C)C(=O)C(C)C2NC(=O)OC12C", "note": "(stereo not shown) [Example 206, R is —CH2CH═CH-(3-hydroxy-2-(N-(2-methoxyphenyl)amido)-7-napthyl)]", "values": [{"measurement": "MIC", "setting": "organism code AA", "result": 0.78, "unit": "µg/mL"}, {"measurement": "MIC", "setting": "organism code BB", "result": 0.39, "unit": "µg/mL"}, {"measurement": "MIC", "setting": "organism code CC", "result": "> 100", "unit": "µg/mL"}, {"measurement": "MIC", "setting": "organism code DD", "result": 0.78, "unit": "µg/mL"}, {"measurement": "MIC", "setting": "organism code EE", "result": 0.78, "unit": "µg/mL"}, {"measurement": "MIC", "setting": "organism code FF", "result": 0.78, "unit": "µg/mL"}, {"measurement": "MIC", "setting": "organism code GG", "result": "> 100", "unit": "µg/mL"}, {"measurement": "MIC", "setting": "organism code HH", "result": 0.78, "unit": "µg/mL"}, {"measurement": "MIC", "setting": "organism code II", "result": 0.39, "unit": "µg/mL"}, {"measurement": "MIC", "setting": "organism code JJ", "result": 0.1, "unit": "µg/mL"}, {"measurement": "MIC", "setting": "organism code KK", "result": 0.39, "unit": "µg/mL"}, {"measurement": "MIC", "setting": "organism code LL", "result": 0.39, "unit": "µg/mL"}, {"measurement": "MIC", "setting": "organism code MM", "result": "> 100", "unit": "µg/mL"}, {"measurement": "MIC", "setting": "organism code NN", "result": 1.56, "unit": "µg/mL"}, {"measurement": "MIC", "setting": "organism code OO", "result": 0.2, "unit": "µg/mL"}, {"measurement": "MIC", "setting": "organism code PP", "result": 1.56, "unit": "µg/mL"}, {"measurement": "MIC", "setting": "organism code QQ", "result": "> 100", "unit": "µg/mL"}, {"measurement": "MIC", "setting": "organism code RR", "result": 25, "unit": "µg/mL"}, {"measurement": "MIC", "setting": "organism code SS", "result": "> 100", "unit": "µg/mL"}, {"measurement": "MIC", "setting": "organism code TT", "result": "> 100", "unit": "µg/mL"}, {"measurement": "MIC", "setting": "organism code UU", "result": 3.1, "unit": "µg/mL"}, {"measurement": "MIC", "setting": "organism code VV", "result": 3.1, "unit": "µg/mL"}, {"measurement": "MIC", "setting": "organism code WW", "result": "> 128", "unit": "µg/mL"}, {"measurement": "MIC", "setting": "organism code XX", "result": 0.5, "unit": "µg/mL"}, {"measurement": "MIC", "setting": "organism code YY", "result": 0.5, "unit": "µg/mL"}, {"measurement": "MIC", "setting": "organism code ZZ", "result": "> 128", "unit": "µg/mL"}, {"measurement": "MIC", "setting": "organism code ZZA", "result": 4, "unit": "µg/mL"}]}, {"compound": "CCC1OC(=O)C(C)C(=O)C(C)C(OC2OC(C)CC(N(C)C)C2O)C(C)(OCC=Cc2ccc3nccnc3c2)CC(C)C(=O)C(C)C2NC(=O)OC12C", "note": "(stereo not shown) [Example 207, R is —CH2CH═CH-(6-quinoxalinyl)]", "values": [{"measurement": "MIC", "setting": "organism code AA", "result": 0.1, "unit": "µg/mL"}, {"measurement": "MIC", "setting": "organism code BB", "result": 0.1, "unit": "µg/mL"}, {"measurement": "MIC", "setting": "organism code CC", "result": "> 100", "unit": "µg/mL"}, {"measurement": "MIC", "setting": "organism code DD", "result": 0.1, "unit": "µg/mL"}, {"measurement": "MIC", "setting": "organism code EE", "result": 0.1, "unit": "µg/mL"}, {"measurement": "MIC", "setting": "organism code FF", "result": 0.1, "unit": "µg/mL"}, {"measurement": "MIC", "setting": "organism code GG", "result": "> 100", "unit": "µg/mL"}, {"measurement": "MIC", "setting": "organism code HH", "result": 0.1, "unit": "µg/mL"}, {"measurement": "MIC", "setting": "organism code II", "result": 0.02, "unit": "µg/mL"}, {"measurement": "MIC", "setting": "organism code JJ", "result": "≤ 0.005", "unit": "µg/mL"}, {"measurement": "MIC", "setting": "organism code KK", "result": "≤ 0.005", "unit": "µg/mL"}, {"measurement": "MIC", "setting": "organism code LL", "result": 0.01, "unit": "µg/mL"}, {"measurement": "MIC", "setting": "organism code MM", "result": 1.56, "unit": "µg/mL"}, {"measurement": "MIC", "setting": "organism code NN", "result": 0.2, "unit": "µg/mL"}, {"measurement": "MIC", "setting": "organism code OO", "result": 0.01, "unit": "µg/mL"}, {"measurement": "MIC", "setting": "organism code PP", "result": 0.1, "unit": "µg/mL"}, {"measurement": "MIC", "setting": "organism code QQ", "result": 25, "unit": "µg/mL"}, {"measurement": "MIC", "setting": "organism code RR", "result": 0.2, "unit": "µg/mL"}, {"measurement": "MIC", "setting": "organism code SS", "result": 50, "unit": "µg/mL"}, {"measurement": "MIC", "setting": "organism code TT", "result": "> 100", "unit": "µg/mL"}, {"measurement": "MIC", "setting": "organism code UU", "result": 0.39, "unit": "µg/mL"}, {"measurement": "MIC", "setting": "organism code VV", "result": 0.02, "unit": "µg/mL"}, {"measurement": "MIC", "setting": "organism code WW", "result": 2, "unit": "µg/mL"}, {"measurement": "MIC", "setting": "organism code XX", "result": 0.015, "unit": "µg/mL"}, {"measurement": "MIC", "setting": "organism code YY", "result": 0.015, "unit": "µg/mL"}, {"measurement": "MIC", "setting": "organism code ZZ", "result": 64, "unit": "µg/mL"}, {"measurement": "MIC", "setting": "organism code ZZA", "result": 0.5, "unit": "µg/mL"}]}]}
